# Measurements taken from patent US6153424A, “Protease-deficient strains of Pichia methanolica” (ZymoGenetics, Inc., priority 1999, dated 2000).
# Test system: P. methanolica cells (strain CBS6515), UV-mutagenized
# Test: Nystatin enrichment for auxotrophic mutants; titering of colony forming units of treated versus control cells
# Type: cell-based, Pichia methanolica
# Conditions: 1 mg nystatin added to remainder of 500 ml culture (50 ml set aside as control) in minimal broth with 5 g/L ammonium sulfate, 1 additional hour with shaking
# Description: Large-scale mutagenesis was then carried out using a 2-second UV exposure to provide about 20% killing. Cells were plated at approximately 10^4 cells/plate onto eight YEPD plates that were supplemented with 100 mg/L each of uracil, adenine, and leucine, which were added to supplement the growth of potential auxotrophs having the cognate deficiencies. Following UV exposure the plates were wrapped in foil and incubated overnight at 30° C. The following day the colonies on the plates (~10^5 total) were resuspended in water and washed once with water. An amount of cell suspension sufficient to give an OD600 of 0.1-0.2 was used to inoculate 500 ml of minimal broth made with yeast nitrogen base without amino acids or ammonia, supplemented with 1% glucose and 400 μg/L biotin. The culture was placed in a 2.8 L baffled Bell flask and shaken vigorously overnight at 30° C. The following day the cells had reached an OD600 of ~1.0-2.0. The cells were pelleted and resuspended in 500 ml of minimal broth supplemented with 5 g/L ammonium sulfate. The cell suspension was placed in a 2.8 L baffled Bell flask and shaken vigorously at 30° C. for 6 hours. 50 ml of the culture was set aside in a 250-ml flask as a control, and to the remainder of the culture was added 1 mg nystatin (Sigma Chemical Co., St. Louis, Mo.) to select for auxotrophic mutants (Snow, Nature 211:206-207, 1966). […]
compound,measurement,value
C[C@@H]1[C@H](O)[C@@H](C)/C=C/C=C/CC/C=C/C=C/C=C/C=C/C(O[C@H]2O[C@H](C)[C@@H](O)[C@H](N)[C@@H]2O)CC2O[C@](O)(CC(O)C(O)CCC(O)CC(O)CC(O)CC(=O)O[C@H]1C)CC(O)C2C(=O)O (stereo partly shown) [nystatin],decrease in the number of viable cells (colony forming units) by a factor,10^4
